Assay results published in paper PMC9143450, “Oxonitrogenated Derivatives of Eremophilans and Eudesmans: Antiproliferative and Anti-Trypanosoma cruzi Activity” (Molecules, 2022).

Columns and labels:
T-47D = assay: Antiproliferative SRB assay (NCI protocol), T-47D; format: cell-based, human; settings: for Selectivity index (SI) on tumor cells: CC50 splenocytes / GI50 T-47D; for GI50: Homo sapiens, T47D, T-47D (breast), 48 h drug exposure, SRB, ± SD
Description: (§1) In vitro antiproliferative activity was evaluated using the protocol of the National Cancer Institute (NCI) after 48 h of drug exposure using the sulforhodamine B (SRB) assay.
(§2) The following human solid tumor cell lines were used in this study: HBL-100 (breast), HeLa (cervix), SW1573 (non-small cell lung), T-47D (breast), A549 (lung), and WiDr (colon). These cell lines were a kind gift from Prof. G. J. Peters (VU Medical Center, Amsterdam, The Netherlands). Cells were maintained in 25 cm^2 culture flasks in RPMI 1640 supplemented with 5% heat-inactivated fetal calf serum and 2 mM L-glutamine in a 37 °C, 5% CO2, 95% humidified air incubator. Exponentially growing cells were trypsinized and resuspended in antibiotic containing medium (100 units penicillin G and 0.1 mg of streptomycin per mL). Single cell suspensions displaying > 97% viability by trypan blue dye exclusion test were subsequently counted. After counting, dilutions were made to give the appropriate cell densities for inoculation onto 96-well microtiter plates. Cells were inoculated in a volume of 100 μL per well at densities of 5000 (WiDr and T-47D), and 2500 (A549, HeLa, SW1573 and HBL-100) cells per well, based on their doubling times.
(§3) Chemosensitivity tests were performed using the SRB assay of the NCI with slight modifications. Briefly, pure compounds were initially dissolved in DMSO at 400 times the desired final maximum test concentration. Control cells were exposed to an equivalent concentration of DMSO (0.25% v/v, negative control). Each agent was tested in triplicates at different dilutions in the range 1–100 μM. Drug treatment started on day 1 after plating. Drug incubation periods were 48 h, after which cells were precipitated with 25 μL of ice-cold 50% (w/v) trichloroacetic acid and fixed for 60 min at 4 °C. Then, the SRB assay was performed. The optical density (OD) of each well was measured at 530 nm, using BioTek’s PowerWave XS Absorbance Microplate Reader. Values were corrected for background OD from wells containing only culture medium. The percentage growth (PG) was calculated with respect to untreated control cells (C) at each level of drug concentrations based on the difference in OD at the start time (T0) and at the end of drug exposure (T), according to NCI formulas. Therefore, if T is greater than or equal to T0, the calculation is 100 × ((T − T0)/(C − T0)). If T is lower than T0, denoting cell death, the calculation is 100 × ((T − T0)/(T0)). The effect is defined as the growth percentage, where 50% growth inhibition (GI50) represents the concentration at which PG is +50. Based on these calculations, a PG value of 0 corresponds to the number of cells present at the beginning of drug exposure, while negative PG values denote net cell death.

WiDr = assay: Antiproliferative SRB assay (NCI protocol), WiDr; format: cell-based, human; settings: for Selectivity index (SI) on tumor cells: CC50 splenocytes / GI50 WiDr; for GI50: Homo sapiens, WiDr (colon), 48 h drug exposure, SRB, ± SD
Description: as §1, §2, §3

A549 = assay: Antiproliferative SRB assay (NCI protocol), A549; format: cell-based, human; settings: for Selectivity index (SI) on tumor cells: CC50 splenocytes / GI50 A549; for GI50: Homo sapiens, A549 (lung), 48 h drug exposure, SRB, ± SD
Description: as §1, §2, §3

HeLa = assay: Antiproliferative SRB assay (NCI protocol), HeLa; format: cell-based, human; settings: for Selectivity index (SI) on tumor cells: CC50 splenocytes / GI50 HeLa; for GI50: Homo sapiens, HeLa (cervix), 48 h drug exposure, SRB, ± SD
Description: as §1, §2, §3

SW1573 = assay: Antiproliferative SRB assay (NCI protocol), SW1573; format: cell-based, human; settings: for Selectivity index (SI) on tumor cells: CC50 splenocytes / GI50 SW1573; for GI50: Homo sapiens, SW1573 (non-small cell lung), 48 h drug exposure, SRB, ± SD
Description: as §1, §2, §3

[1] = test system: HeLa, T-47D, WiDr, A549, HBL-100, and SW1573 cell lines; assay: Antiproliferative SRB assay, whole panel of human solid tumor cell lines; format: cell-based; settings: for GI50: Homo sapiens, minimal to maximal GI50 across the cell lines tested, 48 h, SRB, read-out: GI50 values, range over all cell lines tested
Description: as §1, §2, §3

[2] = test system: Trypanosoma cruzi epimastigotes (RA strain); assay: In vitro anti-Trypanosoma cruzi assay ((3H) thymidine uptake); format: cell-based; settings: for Selectivity Index on T. cruzi epimastigotes: CC50 splenocytes / IC50 epimastigotes; for IC50: epimastigotes (RA strain), ± SD
Description: Trypanosoma cruzi epimastigotes (RA strain, from discrete typing unit (DTU) VI) were grown in a biphasic medium. Cultures were maintained by weekly passages at 28 °C [18].
The growth inhibition of T. cruzi epimastigotes was evaluated by a (^3H) thymidine uptake assay as previously described. Natural sesquiterpenes and derivatives were evaluated at concentrations ranging from 1.5 to 50 µg/mL. Benznidazole (Active Pharmaceutical Ingredient) was used as positive control (Elea). The percentage of inhibition was calculated as 100 = {((cpm of treated parasites)/(cpm of untreated parasites)) × 100}.
Figure 5 Effect of the natural sesquiterpene tessaric acid (1), ilicic acid (2), and ilicic alcohol (3) and their derivatives on T. cruzi. Epimastigotes (RA strain) were cultured in the presence of the compounds (50–1.5 µg/mL). Determinations were performed by triplicate. The results are expressed as the mean ± SD. (A) Effect of tessaric acid and derivatives on epimastigotes; (B) Effect of ilicic acid and derivatives on epimastigotes; (C) Effect of ilicic alcohol and derivatives on epimastigotes.

HBL-100 = assay: Antiproliferative SRB assay (NCI protocol), HBL-100; format: cell-based, human; settings: for Selectivity index (SI) on tumor cells: CC50 splenocytes / GI50 HBL-100; for GI50: Homo sapiens, HBL-100 (breast), 48 h drug exposure, SRB, ± SD
Description: as §1, §2, §3

[3] = Cytotoxicity on primary cell culture (flow cytometry, PI); format: cell-based; settings: Balb/c, mouse, primary splenocytes (spleen cells), ± SD, read-out: Cytotoxic activity on spleen cells (CC50)
Description: (§4) The cytotoxicity of the natural sesquiterpenes (1–3) and derivatives (4–19) was determined on primary cell cultures (splenocytes obtained from Balb/c mouse). […] Derivatives of tessaric acid have shown an improvement in CC50 values in comparison with the natural sesquiterpene 1. […] All the derivatives synthesized from alcohol ilicic (compounds 10–19) were more toxic to mammalian cells than the natural compound (3).
(§5) The cytotoxicity of the compounds was evaluated on splenocytes obtained from Balb/c mouse (1.5 × 10^5) and incubated with different drug dilutions (5–200 μg/mL) as previously described. Cell death was determined by flow cytometry using a BD FACSaria II cytometer. Cells incubated only with drug vehicle were used as 100% viability control, and death percentage was calculated according to the following formula: Death%=1−(%PI^−cells)drug−treated/(%PI^−cells)100% viability control × 100
(§6) The concentration capable of causing 50% cell death (CC50) was determined using a non-linear regression approach.

[4] = test system: splenocytes obtained from Balb/c mouse; assay: as above; format: cell-based; settings: ± SD, read-out: Cytotoxic activity on spleen cells (CC50)
Description: as §4, §5, §6

Row | GI50 [1] | IC50 ([2]; Trypanosoma cruzi) | Compound | Selectivity index (SI) on tumor cells (T-47D) | GI50 (T-47D) | Selectivity index (SI) on tumor cells (WiDr) | GI50 (WiDr) | Selectivity index (SI) on tumor cells (A549) | GI50 (A549) | Selectivity index (SI) on tumor cells (HeLa) | GI50 (HeLa) | Selectivity index (SI) on tumor cells (SW1573) | GI50 (SW1573) | Selectivity Index on T. cruzi epimastigotes [2] | Selectivity index (SI) on tumor cells (HBL-100) | GI50 (HBL-100) | CC50 [3] | also measured
1 | 17 to 64 µM | 63.2 µM | C=C(C(=O)N(c1ccccc1)C(C)(C)C(=O)NC1CCCCC1)[C@@H]1CCC2=CC(=O)C[C@H](C)[C@@]2(C)C1 [Compound 8] | 0.7 | 27 µM | 0.7 | 30 µM | 0.7 | 27 µM | 0.6 | 31 µM | 0.7 | 30 µM | 0.3 | 0.5 | 37 µM | 19.8 µM | 
2 | 17 to 64 µM | > 100 µM | C=C(C(=O)N(c1ccccc1)C(C)(C)C(=O)NCc1ccccc1)[C@@H]1CCC2=CC(=O)C[C@H](C)[C@@]2(C)C1 [Compound 6] | 3.5 | 30 µM | 2.4 | 44 µM | 3.1 | 33 µM | 2.9 | 36 µM | 2.6 | 40 µM |  | 1.7 | 61 µM | 104 µM | 
3 | 17 to 64 µM | > 101 µM | C=C(C(=O)N(c1ccccc1)C(C)(C)C(=O)NC1CCCCC1)C1CCC2(C)CCCC(C)(O)C2C1 (centres unmarked) [Compound 14] | >17 | 23 µM |  | 20 µM | >18.4 | 22 µM | >24 | 17 µM |  | 27 µM |  |  | 20 µM | > 405 µM | Selectivity index (IS) values, over the tumor cell lines evaluated ([1]; CC50 splenocytes / GI50 tumor cells, across cell lines): greater than 15

More lines, now with the values behind:

Row | Compound | GI50 [1] | IC50 ([2]; Trypanosoma cruzi) | Selectivity index (SI) on tumor cells (T-47D) | GI50 (T-47D) | Selectivity index (SI) on tumor cells (WiDr) | GI50 (WiDr) | Selectivity index (SI) on tumor cells (A549) | GI50 (A549) | Selectivity index (SI) on tumor cells (HeLa) | GI50 (HeLa) | Selectivity index (SI) on tumor cells (SW1573) | GI50 (SW1573) | Selectivity Index on T. cruzi epimastigotes [2] | Selectivity index (SI) on tumor cells (HBL-100) | GI50 (HBL-100) | CC50 [3] | also measured
4 | C=C(C(=O)N(Cc1ccccc1)C(C)(C)C(=O)NCc1ccccc1)[C@@H]1CCC2=CC(=O)C[C@H](C)[C@@]2(C)C1 [Compound 7] | 17 to 64 µM | 9.3 µM | 1.7 | 22 µM | 1.0 | 37 µM | 1.4 | 27 µM | 2.0 | 19 µM | 1.3 | 30 µM | 8.0 | 0.9 | 41 µM | 38.1 µM | IC50 [2]: 4.7 µM
5 | C=C(C(=O)N(c1ccccc1)C(C)(C)C(=O)NC(C)(C)C)C1CCC2(C)CCCC(C)(O)C2C1 (centres unmarked) [Compound 10] | 17 to 64 µM | 19.6 µM | 2.2 | 36 µM | 1.7 | 45 µM | 2.5 | 31 µM | 2.1 | 37 µM | 1.6 | 50 µM | 4.0 | 1.2 | 64 µM | 78.2 µM | 
6 | C=C(C(=O)N(c1ccccc1)C(C)(C)C(=O)NCc1ccccc1)C1CCC2(C)CCCC(C)(O)C2C1 (centres unmarked) [Compound 12] | 17 to 64 µM | 8 µM | 3.2 | 20 µM | 2.7 | 24 µM | 2.9 | 22 µM | 3.8 | 17 µM | 2.4 | 27 µM | 8.0 | 3.2 | 20 µM | 64.3 µM | 
7 | C=C(C(=O)N(Cc1ccccc1)C(C)(C)C(=O)NC(C)(C)C)C1CCC2(C)CCCC(C)(O)C2C1 (centres unmarked) [Compound 11] | 17 to 64 µM | 26.1 µM | 14.5 | 23 µM | 11.5 | 29 µM | 16.7 | 20 µM | 17.6 | 19 µM | 10.1 | 33 µM | 12.6 | 10.1 | 33 µM | 334 µM | 
8 | C=C(C(=O)O)[C@@H]1CCC2=CC(=O)C[C@H](C)[C@@]2(C)C1 [Compound 1, tessaric acid] |  | > 201 µM |  | > 100 µM |  | > 100 µM |  |  |  | > 100 µM |  | > 100 µM |  |  | > 100 µM | > 329 µM | Antiproliferative activity (in words) ([1]; solid tumor cell lines evaluated): did not show antiproliferative activity; Trypanocidal activity (in words) ([2]; T. cruzi): nor trypanocidal activity; CC50 [4]: 329 µM
